What was measured:
[1] = target: T1, stearoyl-CoA desaturase (SCD1) (Mus musculus, UniProt P13516); assay: SCD microsomal assay: release of 3H2O from [9,10-3H]stearoyl-CoA in mouse liver microsomes; type: biochemical; conditions: 15 min incubation at 25° C.
T1 construct: Reactions are started by adding 50 μL of microsomes (1.25 mg/mL); from tissue; host or cells: liver microsomes of male ICR outbred mice on a high-carbohydrate, low fat diet
T1 sequence (P13516 1-355): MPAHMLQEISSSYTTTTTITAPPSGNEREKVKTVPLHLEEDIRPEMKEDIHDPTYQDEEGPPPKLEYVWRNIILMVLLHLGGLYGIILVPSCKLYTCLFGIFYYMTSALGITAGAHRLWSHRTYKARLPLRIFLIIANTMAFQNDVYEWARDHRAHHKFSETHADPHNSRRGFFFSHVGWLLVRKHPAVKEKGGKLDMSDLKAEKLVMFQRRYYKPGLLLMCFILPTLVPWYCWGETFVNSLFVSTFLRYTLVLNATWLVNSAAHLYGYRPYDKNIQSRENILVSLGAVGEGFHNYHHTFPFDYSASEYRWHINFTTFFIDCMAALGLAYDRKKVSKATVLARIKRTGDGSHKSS
From the text: The identification of compounds of the invention as SCD inhibitors was readily accomplished using the SCD enzyme and microsomal assay procedure described in Shanklin J. and Summerville C., Proc. Natl. Acad. Sci. USA (1991), Vol. 88, pp. 2510-2514.
Measuring Stearoyl-CoA Desaturase Inhibition Activity of a Test Compound Using Mouse Liver Microsomes
The identification of compounds of the invention as SCD inhibitors was readily accomplished using the SCD microsomal assay procedure described in Shanklin J. and Summerville C., Proc. Natl. Acad. Sci. USA (1991), Vol. 88, pp. 2510-2514.
Male ICR outbread mice, on a high-carbohydrate, low fat diet, under light halothane (15% in mineral oil) anesthesia are sacrificed by exsanguination during periods of high enzyme activity. Livers are immediately rinsed with cold 0.9% NaCl solution, weighed and minced with scissors. All procedures are performed at 4° C. unless specified otherwise. Livers are homogenized in a solution (1/3 w/v) containing 0.25 M sucrose, 62 mM potassium phosphate buffer (pH 7.0), 0.15 M KCl, 15 mM N-acetyleysteine, 5 mM MgCl2, and 0.1 mM EDTA using 4 strokes of a Potter-Elvehjem tissue homogenizer. The homogenate is centrifuged at 10,400×g for 20 min to eliminate mitochondria and cellular debris. The supernatant is filtered through a 3-layer cheesecloth and centrifuged at 105,000×g for 60 min. The microsomal pellet is gently resuspended in the same homogenization solution with a small glass/teflon homogenizer and stored at −70° C. The absence of mitochondrial contamination is enzymatically assessed. The protein concentration is measured using bovine serum albumin as the standard.
Desaturase activity is measured as the release of ^3H2O from [9,10-^3H]stearoyl-CoA. Reactions per assay point conditions are as follows: 2 μL 1.5 mM stearoyl-CoA, 0.25 μL 1 mCi/mL ^3H stearoyl CoA, 10 μL 20 mM NADH, 36.75 μL 0.1 M PK buffer (K2HPO4/NaH2PO4, pH 7.2). The test compound or control solution is added in a 1 μL volume. Reactions are started by adding 50 μL of microsomes (1.25 mg/mL). The plates are mixed and after 15 min incubation on a heating block (25° C.), the reactions are stopped by the addition of 10 μL 60% PCA. An aliquot of 100 μL is then transferred to a filter plate pretreated with charcoal and the plate centrifuged at 4000 rpm for 1 minute. The flow through containing the ^3H2O released by the SCD1 desaturation reaction is added to scintillation fluid and the radioactivity measured in a Packard TopCount. The data is analysed to identify the IC50 for test compounds and reference compounds. […] The activity was defined in terms of % SCD enzyme activity remaining at the desired concentration of the test compound or as the IC50 concentration. The IC50 (affinity) of the example compounds toward the stearoyl-CoA desaturase is comprised between around […] and 0.0001 μM or between around 5 μM and 0.0001 μM or between around 1 μM and 0.0001 μM.

IC50 [1] [nM]	melting point	SMILES
124	163 to 164 °C	CCN1CCN(c2nc(C)c(C(=O)NCc3cccnc3)s2)C1=O [Example 9.39, 2-(3-ethyl-2-oxoimidazolidin-1-yl)-4-methyl-N-(pyridin-3-ylmethyl)thiazole-5-carboxamide]
12	163 to 164 °C	Cc1nc(-n2ccn(Cc3ccc(C(F)(F)F)cc3)c2=O)sc1C(=O)NCc1cccnc1 [Example 17.3, 4-methyl-2-(2-oxo-3-(4-(trifluoromethyl)benzyl)-2,3-dihydro-1H-imidazol-1-yl)-N-(pyridin-3-ylmethyl)thiazole-5-carboxamide]
577	255 to 256 °C	Cc1nc(-n2cnn(CC(=O)Nc3ccc(Cl)cc3)c2=O)sc1C(=O)NCc1cccnc1 [Example 19.10, 2-(1-(2-(4-chlorophenylamino)-2-oxoethyl)-5-oxo-1H-1,2,4-triazol-4(5H)-yl)-4-methyl-N-(pyridin-3-ylmethyl)thiazole-5-carboxamide]
61	118 to 120 °C	CCOC(=O)c1ccc(CN2CCN(c3nc(C)c(C(=O)NCc4ccccc4)s3)C2=O)cc1 [Example 23.2, ethyl 4-((3-(5-(benzylcarbamoyl)-4-methylthiazol-2-yl)-2-oxoimidazolidin-1-yl)methyl)benzoate]
495		Cc1nc(N2CCN(CC3CCCCO3)C2=O)sc1C(=O)NCc1ccccc1 (stereo not drawn) [Example 23.6, N-benzyl-4-methyl-2-(2-oxo-3-((tetrahydro-2H-pyran-2-yl)methyl)imidazolidin-1-yl)thiazole-5-carboxamide]
39	161 to 162 °C	O=C(NCc1cccnc1)c1sc(N2CCN(Cc3ccc(F)cc3)C2=O)nc1C(F)(F)F [Example 26.1, 2-(3-(4-fluorobenzyl)-2-oxoimidazolidin-1-yl)-N-(pyridin-3-ylmethyl)-4-(trifluoromethyl)thiazole-5-carboxamide]
25	125 to 126 °C	Cc1nc(N2CCN(Cc3ccccc3)C2=N)sc1C(=O)NCc1ccccc1 [Example 27.3, N-benzyl-2-(3-benzyl-2-iminoimidazolidin-1-yl)-4-methylthiazole-5-carboxamide]
267	58 to 61 °C	Cc1nc(N2CCN(Cc3ccccn3)C2=O)sc1C(=O)NCc1cccnc1 [Example 32.8, 4-methyl-2-(2-oxo-3-(pyridin-2-ylmethyl)imidazolidin-1-yl)-N-(pyridin-3-ylmethyl)thiazole-5-carboxamide]
1240	153 to 154 °C	Cc1nc(N2CCN(Cc3ccc(C(F)(F)F)cc3)C2=O)sc1-c1ccno1 [Example 38.1, 1-(5-(isoxazol-5-yl)-4-methylthiazol-2-yl)-3-(4-(trifluoromethyl)benzyl)imidazolidin-2-one]
152	163 to 164 °C	Cc1noc(-c2sc(N3CCN(Cc4ccc(C(F)(F)F)cc4)C3=O)nc2C)n1 [Example 44, 1-(4-methyl-5-(3-methyl-1,2,4-oxadiazol-5-yl)thiazol-2-yl)-3-(4-(trifluoromethyl)benzyl)imidazolidin-2-one]
459	107 to 108 °C	Cc1nc(N2CCN(Cc3ccc(C(F)(F)F)cc3)C2=O)sc1Br [Example 45, 1-(5-bromo-4-methylthiazol-2-yl)-3-(4-(trifluoromethyl)benzyl)imidazolidin-2-one]
	128 to 131 °C	Cc1cc(N2CCN(Cc3ccc(F)cc3)C2=O)sc1C(=O)NCc1cccs1 [Example 55.5, 5-(3-(4-fluorobenzyl)-2-oxoimidazolidin-1-yl)-3-methyl-N-(thiophen-2-ylmethyl)thiophene-2-carboxamide]
27		Cc1cc(N2CCN(Cc3ccc(F)cc3)C2=O)sc1C(=O)NC1Cc2ccccc2C1 [Example 55.8, N-(2,3-dihydro-1H-inden-2-yl)-5-(3-(4-fluorobenzyl)-2-oxoimidazolidin-1-yl)-3-methylthiophene-2-carboxamide]
	120 °C (dec.)	Cc1cc(N2CCN(Cc3ccc(C(=O)O)cc3)C2=O)sc1C(=O)NCc1cccnc1 [Example 56, 4-((3-(4-methyl-5-(pyridin-3-ylmethylcarbamoyl)thiophen-2-yl)-2-oxoimidazolidin-1-yl)methyl)benzoic acid]
	75 °C (dec.)	Cc1cc(N2CCN(CC(O)c3ccccc3)C2=O)sc1C(=O)NCc1cccnc1 (stereo not drawn) [Example 57, 5-(3-(2-hydroxy-2-phenylethyl)-2-oxoimidazolidin-1-yl)-3-methyl-N-(pyridin-3-ylmethyl)thiophene-2-carboxamide]
	118 to 120 °C	Cc1cc(N2CCN(Cc3ccc(N)cc3)C2=O)sc1C(=O)NCc1cccnc1 [Example 58, 5-(3-(4-aminobenzyl)-2-oxoimidazolidin-1-yl)-3-methyl-N-(pyridin-3-ylmethyl)thiophene-2-carboxamide]
428		Cc1cc(N2CCN(Cc3ccc(F)cc3)C2=O)sc1-c1nc(Cc2ccccc2)c[nH]1 [Example 60, 1-(5-(4-benzyl-1H-imidazol-2-yl)-4-methylthiophen-2-yl)-3-(4-fluorobenzyl)imidazolidin-2-one]

Reference: patent publication US8293768B2, “Organic compounds” (Novartis AG, priority 2006, dated 2012)
